From ChEMBL document CHEMBL4257554, “On the inhibition of capsaicin response in dorsal root ganglion neurons by nobilamide B and analogues: a structure-activity relationship study” (Medchemcomm, 2018)
Non-standard residues stand in square brackets, D forms with d. Residues, ends and D or L forms follow the SMILES beside them. *: point of attachment. d(aThr) = C[C@@H](O)[C@@H](N)C(=O)O; Dhb = C/C=C(\N)C(=O)O; Propionyl = CCC(=O)*

Target: Transient receptor potential cation channel subfamily V member 1 (Mus musculus) (UniProt Q704Y3)
Sequence (Q704Y3 whole entry): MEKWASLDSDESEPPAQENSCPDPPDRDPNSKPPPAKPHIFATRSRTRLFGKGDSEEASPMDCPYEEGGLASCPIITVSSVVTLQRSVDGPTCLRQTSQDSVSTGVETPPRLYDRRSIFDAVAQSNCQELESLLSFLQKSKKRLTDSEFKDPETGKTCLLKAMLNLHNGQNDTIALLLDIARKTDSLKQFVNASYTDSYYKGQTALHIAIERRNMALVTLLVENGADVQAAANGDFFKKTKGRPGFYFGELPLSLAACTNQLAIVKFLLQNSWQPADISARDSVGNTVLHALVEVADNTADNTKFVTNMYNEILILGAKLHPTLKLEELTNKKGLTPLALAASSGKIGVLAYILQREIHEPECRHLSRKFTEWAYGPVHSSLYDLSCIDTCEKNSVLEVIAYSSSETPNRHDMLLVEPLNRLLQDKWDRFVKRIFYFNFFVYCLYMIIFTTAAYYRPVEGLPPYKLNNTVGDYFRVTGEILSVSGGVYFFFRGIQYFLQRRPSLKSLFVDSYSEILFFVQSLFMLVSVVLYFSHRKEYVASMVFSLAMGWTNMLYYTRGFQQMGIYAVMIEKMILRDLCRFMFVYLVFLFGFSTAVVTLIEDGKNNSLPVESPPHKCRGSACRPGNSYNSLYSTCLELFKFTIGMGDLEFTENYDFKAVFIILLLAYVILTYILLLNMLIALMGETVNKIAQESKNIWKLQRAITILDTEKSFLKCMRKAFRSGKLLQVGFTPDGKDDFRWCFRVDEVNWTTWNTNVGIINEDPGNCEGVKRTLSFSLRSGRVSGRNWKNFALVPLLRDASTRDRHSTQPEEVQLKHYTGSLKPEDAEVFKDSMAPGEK
Assay: Antagonist activity at TRPV1 channel in mouse DRG neurons assessed as inhibition of capsaicin-induced calcium accumulation at 300 uM incubated for 6 mins by Fura-2-AM dye based fluorescence assay relative to control

Structure (SMILES)	inhibition [%]
C/C=C(\NC(=O)[C@H](C)NC(=O)[C@@H](NC(=O)[C@H](NC(=O)[C@H](C)NC(=O)[C@@H](CC(C)C)NC(=O)[C@@H](Cc1ccccc1)NC(=O)CC)[C@@H](C)O)C(C)C)C(=O)O	23.5
CCC(=O)N[C@H](Cc1ccccc1)C(=O)N[C@H](CC(C)C)C(=O)N[C@@H](Cc1ccccc1)C(=O)N[C@@H](C(=O)N[C@H](C(=O)N[C@@H](C)C(=O)N[C@@H](C)C(=O)O)C(C)C)[C@@H](C)O	35.6
C/C=C(\NC(=O)[C@H](C)NC(=O)[C@@H](NC(=O)[C@H](NC(=O)[C@H](Cc1ccccc1)NC(=O)[C@H](C)NC(=O)[C@@H](Cc1ccccc1)NC(=O)CC)[C@@H](C)O)C(C)C)C(=O)O	3.27
C/C=C(\NC(=O)[C@H](C)NC(=O)[C@@H](NC(=O)[C@H](NC(=O)[C@H](Cc1ccccc1)NC(=O)[C@@H](CC(C)C)NC(=O)[C@H](C)NC(=O)CC)[C@@H](C)O)C(C)C)C(=O)O	6.47

More lines, now with the values ahead:

inhibition [%]	Structure (SMILES)
33.6	C/C=C(\NC(=O)[C@H](C)NC(=O)[C@@H](NC(=O)[C@H](NC(=O)[C@H](Cc1ccccc1)NC(=O)[C@@H](CC(C)C)NC(=O)[C@@H](Cc1ccccc1)NC(=O)CC)[C@@H](C)O)C(C)C)C(=O)O (Propionyl-[dF][dL]F[d(aThr)]VA[Dhb]-OH)
5.38	C/C=C(\NC(=O)[C@H](C)NC(=O)[C@@H](NC(=O)[C@H](C)NC(=O)[C@H](Cc1ccccc1)NC(=O)[C@@H](CC(C)C)NC(=O)[C@@H](Cc1ccccc1)NC(=O)CC)C(C)C)C(=O)O
27.8	C/C=C(\NC(=O)[C@H](C)NC(=O)[C@H](C)NC(=O)[C@H](NC(=O)[C@H](Cc1ccccc1)NC(=O)[C@@H](CC(C)C)NC(=O)[C@@H](Cc1ccccc1)NC(=O)CC)[C@@H](C)O)C(=O)O
